# In US20100173943A1, “INSECTICIDAL COMPOSITIONS WITH IMPROVED ACTION” (BAYER CROPSCIENCE AG, priority 2007, published 2010):
# Where two headings read alike, the source gives them in different places.
# Tests used:
# [1] = system: cotton aphid (Aphis gossypii); assay: Aphis gossypii test (APHIGO spray treatment); type: in vivo; settings: for pest or weed control at 4 ppm: 4 ppm a.i. alone
# Description: Aphis gossypii Test (APHIGO Spray Treatment)
# (§1) Solvent: 7 parts by weight of dimethylformamide
# (§2) Emulsifier: 2 parts by weight of alkylaryl polyglycol ether
# (§3) To prepare a ready-to-use active ingredient formulation, 1 part by weight of active ingredient is mixed with the specified amounts of solvent and emulsifier and the concentrate is diluted with emulsifier-containing water to the desired concentration. In the case that addition of ammonium salts, penetrants, or ammonium salts and penetrants is required, they are pipetted in each case into the finished preparation solution after dilution in a concentration of 1000 ppm each.
# Cotton leaves (Gossypium hirsutum) highly infested by the cotton aphid (Aphis gossypii) are sprayed with an active ingredient formulation with the desired concentration.
# After the desired period, the kill rate in % is determined. 100% means that all aphids have been killed; 0% means that no aphids have been killed.
# [2] = system: green peach aphid (Myzus persicae); assay: Myzus persicae test (MYZUPE); type: in vivo; settings: for pest or weed control at 4 ppm: 4 ppm a.i. alone
# Description: Myzus persicae Test (MYZUPE)
# as §1, §2
# as §3, with “prepare an appropriate” for “prepare a ready-to-use”, “the given” for “the specified”, “and emulsifier,” for “and emulsifier”, “are pippetted” for “are pipetted”
# Pepper plants (Capsicum annuum) highly infested by the green peach aphid (Myzus persicaei) are treated by spraying with the active ingredient formulation in the desired concentration.
# After the desired time, the kill rate in % is determined. 100% means that all animals have been killed; 0% means that no animals have been killed.
# [3] = 0.8 ppm a.i. + AMS and RME 1000 ppm each, cotton leaves sprayed, 6 days
# [4] = 0.8 ppm a.i. + ammonium sulphate 1000 ppm, cotton leaves sprayed, 6 days
# [5] = 0.8 ppm a.i. + rapeseed oil methyl ester 1000 ppm, cotton leaves sprayed, 6 days
# [6] = Aphis gossypii, 144 h, 0.8 ppm a.i. alone, cotton leaves sprayed, 6 days, read-out: Kill in % after 6 days a.i.
# [7] = 0.8 ppm a.i. + AMS and RME 1000 ppm each, pepper plants sprayed, 6 days
# [8] = 0.8 ppm a.i. + ammonium sulphate 1000 ppm, pepper plants sprayed, 6 days
# [9] = 0.8 ppm a.i. + rapeseed oil methyl ester 1000 ppm, pepper plants sprayed, 6 days
# [10] = 4 ppm a.i. + AMS and RME 1000 ppm each, pepper plants sprayed, 6 days
# [11] = 4 ppm a.i. + ammonium sulphate 1000 ppm, pepper plants sprayed, 6 days
# [12] = 4 ppm a.i. + rapeseed oil methyl ester 1000 ppm, pepper plants sprayed, 6 days
# [13] = Myzus persicae, 144 h, 0.8 ppm a.i. alone, pepper plants sprayed, 6 days, read-out: Kill in % after 6 days a.i.
# [14] = Myzus persicae, 144 h, pepper plants sprayed, 6 days, read-out: Kill in % after 6 days a.i.
# [15] = 4 ppm a.i. + AMS and RME 1000 ppm each, cotton leaves sprayed, 6 days
# [16] = 4 ppm a.i. + ammonium sulphate 1000 ppm, cotton leaves sprayed, 6 days
# [17] = 4 ppm a.i. + rapeseed oil methyl ester 1000 ppm, cotton leaves sprayed, 6 days
# [18] = Aphis gossypii, 144 h, cotton leaves sprayed, 6 days, read-out: Kill in % after 6 days a.i.
smiles,measurement,setting,value
"O=C1C=C(N(CCF)Cc2ccc(Br)nc2)CO1 [Compound I-1, 4-{[(6-bromopyrid-3-yl)methyl](2-fluoroethyl)amino}furan-2(5H)-one]",Kill in % after 6 days +AMS + RME,[1]; [3],95%
same,Kill in % after 6 days +AMS,[1]; [4],20%
same,Kill in % after 6 days +RME,[1]; [5],50%
same,pest or weed control at 0.8 ppm,[1]; [6],25%
same,Kill in % after 6 days +AMS + RME,[2]; [7],35%
same,Kill in % after 6 days +AMS,[2]; [8],0%
same,Kill in % after 6 days +RME,[2]; [9],25%
same,Kill in % after 6 days +AMS + RME,[2]; [10],99%
same,Kill in % after 6 days +AMS,[2]; [11],95%
same,Kill in % after 6 days +RME,[2]; [12],99%
same,pest or weed control at 0.8 ppm,[2]; [13],0%
same,pest or weed control at 4 ppm,[2]; [14],35%
O=C1C=C(N(Cc2ccc(Br)nc2)CC(F)F)CO1 [Compound I-2],Kill in % after 6 days +AMS + RME,[1]; [3],15%
same,Kill in % after 6 days +AMS,[1]; [4],98%
same,Kill in % after 6 days +RME,[1]; [5],90%
same,pest or weed control at 0.8 ppm,[1]; [6],15%
same,Kill in % after 6 days +AMS + RME,[2]; [7],30%
same,Kill in % after 6 days +AMS,[2]; [8],50%
same,Kill in % after 6 days +RME,[2]; [9],98%
same,pest or weed control at 0.8 ppm,[2]; [13],0%
"O=C1C=C(N(Cc2ccc(F)nc2)CC(F)F)CO1 [Compound I-3, 4-{[(6-fluoropyrid-3-yl)methyl](2,2-difluoroethyl)amino}furan-2(5H)-one]",Kill in % after 6 days +AMS + RME,[1]; [3],90%
same,Kill in % after 6 days +AMS,[1]; [4],15%
same,Kill in % after 6 days +RME,[1]; [5],35%
same,pest or weed control at 0.8 ppm,[1]; [6],0%
same,Kill in % after 6 days +AMS + RME,[2]; [10],100%
same,Kill in % after 6 days +AMS,[2]; [11],80%
same,Kill in % after 6 days +RME,[2]; [12],85%
same,pest or weed control at 4 ppm,[2]; [14],0%
"O=C1C=C(N(CCF)Cc2cnc(Cl)s2)CO1 [Compound I-4, 4-{[(2-chloro-1,3-thiazol-5-yl)methyl](2-fluoroethyl)amino}furan-2(5H)-one]",Kill in % after 6 days +AMS + RME,[1]; [15],85%
same,Kill in % after 6 days +AMS,[1]; [16],20%
same,Kill in % after 6 days +RME,[1]; [17],65%
same,pest or weed control at 4 ppm,[1]; [18],20%
same,Kill in % after 6 days +AMS + RME,[2]; [10],100%
same,Kill in % after 6 days +AMS,[2]; [11],80%
same,Kill in % after 6 days +RME,[2]; [12],90%
same,pest or weed control at 4 ppm,[2]; [14],15%
"O=C1C=C(N(CCF)Cc2ccc(Cl)nc2)CO1 [Compound I-6, 4-{[(6-chloropyrid-3-yl)methyl](2-fluoroethyl)amino}furan-2(5H)-one]",Kill in % after 6 days +AMS + RME,"[1]; 0.16 ppm a.i. + AMS and RME 1000 ppm each, cotton leaves sprayed, 6 days",40%
same,Kill in % after 6 days +AMS,"[1]; 0.16 ppm a.i. + ammonium sulphate 1000 ppm, cotton leaves sprayed, 6 days",0%
same,Kill in % after 6 days +RME,"[1]; 0.16 ppm a.i. + rapeseed oil methyl ester 1000 ppm, cotton leaves sprayed, 6 days",25%
same,Kill in % after 6 days +AMS + RME,[1]; [3],70%
same,Kill in % after 6 days +AMS,[1]; [4],55%
same,Kill in % after 6 days +RME,[1]; [5],80%
same,pest or weed control at 0.16 ppm,"[1]; Aphis gossypii, 144 h, 0.16 ppm a.i. alone, cotton leaves sprayed, 6 days, read-out: Kill in % after 6 days a.i.",0%
same,pest or weed control at 0.8 ppm,[1]; [6],45%
same,Kill in % after 6 days +AMS + RME,[2]; [10],100%
same,Kill in % after 6 days +AMS,[2]; [11],85%
same,Kill in % after 6 days +RME,[2]; [12],100%
same,pest or weed control at 4 ppm,[2]; [14],60%
"O=C1C=C(N(Cc2ccc(Cl)nc2)CC(F)F)CO1 [Compound I-7, 4-{[(6-chloropyrid-3-yl)methyl](2,2-difluoroethyl)amino}furan-2(5H)-one]",Kill in % after 6 days +AMS + RME,[1]; [3],80%
same,Kill in % after 6 days +AMS,[1]; [4],60%
same,Kill in % after 6 days +RME,[1]; [5],70%
same,pest or weed control at 0.8 ppm,"[1]; Aphis gossypii, 144 h, read-out: Kill in % after 6 days a.i.",60%
same,Kill in % after 6 days +AMS + RME,[2]; [7],90%
same,Kill in % after 6 days +AMS,[2]; [8],45%
same,Kill in % after 6 days +RME,[2]; [9],80%
same,pest or weed control at 0.8 ppm,"[2]; Myzus persicae, 144 h, read-out: Kill in % after 6 days a.i.",55%
"CN(Cc1cnc(Cl)c(F)c1)C1=CC(=O)OC1 [Compound I-8, 4-{[(6-chloro-5-fluoropyrid-3-yl)methyl](methyl)amino}furan-2(5H)-one]",Kill in % after 6 days +AMS + RME,[1]; [3],75%
same,Kill in % after 6 days +AMS,[1]; [4],30%
same,Kill in % after 6 days +RME,[1]; [5],60%
same,pest or weed control at 0.8 ppm,[1]; [6],20%
same,Kill in % after 6 days +AMS + RME,[2]; [7],95%
same,Kill in % after 6 days +AMS,[2]; [8],50%
same,Kill in % after 6 days +RME,[2]; [9],95%
same,pest or weed control at 0.8 ppm,[2]; [13],40%
"O=C1C=C(N(Cc2cnc(Cl)c(Cl)c2)C2CC2)CO1 [Compound I-9, 4-{[(5,6-dichloropyrid-3-yl)methyl](cyclopropyl)amino}furan-2(5H)-one]",Kill in % after 6 days +AMS + RME,[1]; [3],30%
same,Kill in % after 6 days +AMS,[1]; [4],0%
same,Kill in % after 6 days +RME,[1]; [5],15%
same,pest or weed control at 0.8 ppm,[1]; [6],0%
same,Kill in % after 6 days +AMS + RME,[2]; [10],70%
same,Kill in % after 6 days +AMS,[2]; [11],15%
same,Kill in % after 6 days +RME,[2]; [12],60%
same,pest or weed control at 4 ppm,[2]; [14],0%
"CN(Cc1cnc(Cl)c(Cl)c1)C1=CC(=O)OC1 [Compound I-10, 4-{[(5,6-dichloropyrid-3-yl)methyl](methyl)amino}furan-2(5H)-one]",Kill in % after 6 days +AMS + RME,[1]; [15],99%
same,Kill in % after 6 days +AMS,[1]; [16],99%
same,Kill in % after 6 days +RME,[1]; [17],85%
same,pest or weed control at 4 ppm,[1]; [18],65%
same,Kill in % after 6 days +AMS + RME,[2]; [7],99%
same,Kill in % after 6 days +AMS,[2]; [8],0%
same,Kill in % after 6 days +RME,[2]; [9],90%
same,pest or weed control at 0.8 ppm,[2]; [13],0%
"CN(Cc1cnc(Br)c(F)c1)C1=CC(=O)OC1 [Compound I-11, 4-{[(6-bromo-5-fluoropyrid-3-yl)methyl](methyl)amino}furan-2(5H)-one]",Kill in % after 6 days +AMS + RME,[1]; [3],99%
same,Kill in % after 6 days +AMS,[1]; [4],55%
same,Kill in % after 6 days +RME,[1]; [5],95%
same,pest or weed control at 0.8 ppm,[1]; [6],15%
same,Kill in % after 6 days +AMS + RME,"[2]; 0.16 ppm a.i. + AMS and RME 1000 ppm each, pepper plants sprayed, 6 days",90%
same,Kill in % after 6 days +AMS,"[2]; 0.16 ppm a.i. + ammonium sulphate 1000 ppm, pepper plants sprayed, 6 days",0%
same,Kill in % after 6 days +RME,"[2]; 0.16 ppm a.i. + rapeseed oil methyl ester 1000 ppm, pepper plants sprayed, 6 days",0%
same,Kill in % after 6 days +AMS + RME,[2]; [7],99%
same,Kill in % after 6 days +AMS,[2]; [8],95%
same,Kill in % after 6 days +RME,[2]; [9],99%
same,pest or weed control at 0.16 ppm,"[2]; Myzus persicae, 144 h, 0.16 ppm a.i. alone, pepper plants sprayed, 6 days, read-out: Kill in % after 6 days a.i.",0%
same,pest or weed control at 0.8 ppm,[2]; [13],85%
"O=C1C=C(N(Cc2cnc(Br)c(F)c2)C2CC2)CO1 [Compound I-12, 4-{[(6-bromo-5-fluoropyrid-3-yl)methyl](cyclopropyl)amino}furan-2(5H)-one]",Kill in % after 6 days +AMS + RME,[1]; [3],25%
same,Kill in % after 6 days +AMS,[1]; [4],5%
same,Kill in % after 6 days +RME,[1]; [5],10%
same,Kill in % after 6 days +AMS + RME,[1]; [15],75%
same,Kill in % after 6 days +AMS,[1]; [16],80%
same,Kill in % after 6 days +RME,[1]; [17],85%
same,pest or weed control at 0.8 ppm,[1]; [6],0%
same,pest or weed control at 4 ppm,[1]; [18],55%
same,Kill in % after 6 days +AMS + RME,[2]; [7],45%
same,Kill in % after 6 days +AMS,[2]; [8],0%
same,Kill in % after 6 days +RME,[2]; [9],10%
same,Kill in % after 6 days +AMS + RME,[2]; [10],95%
same,Kill in % after 6 days +AMS,[2]; [11],95%
same,Kill in % after 6 days +RME,[2]; [12],100%
same,pest or weed control at 0.8 ppm,[2]; [13],5%
same,pest or weed control at 4 ppm,[2]; [14],85%
"O=C1C=C(N(Cc2cnc(Cl)c(F)c2)C2CC2)CO1 [Compound I-13, 4-{[(6-chloro-5-fluoropyrid-3-yl)methyl](cyclopropyl)amino}furan-2(5H)-one]",Kill in % after 6 days +AMS + RME,[1]; [3],20%
same,Kill in % after 6 days +AMS,[1]; [4],5%
same,Kill in % after 6 days +RME,[1]; [5],5%
same,Kill in % after 6 days +AMS + RME,[1]; [15],75%
same,Kill in % after 6 days +AMS,[1]; [16],65%
same,Kill in % after 6 days +RME,[1]; [17],75%
same,pest or weed control at 0.8 ppm,[1]; [6],0%
same,pest or weed control at 4 ppm,[1]; [18],80%
same,Kill in % after 6 days +AMS + RME,[2]; [7],90%
same,Kill in % after 6 days +AMS,[2]; [8],5%
same,Kill in % after 6 days +RME,[2]; [9],35%
same,pest or weed control at 0.8 ppm,[2]; [13],5%
"O=C1C=C(N(CCF)Cc2cnc(Cl)c(Cl)c2)CO1 [Compound I-14, 4-{[(5,6-dichloropyrid-3-yl)methyl](2-fluoroethyl)amino}furan-2(5H)-one]",Kill in % after 6 days +AMS + RME,[1]; [3],70%
same,Kill in % after 6 days +AMS,[1]; [4],5%
same,Kill in % after 6 days +RME,[1]; [5],40%
same,pest or weed control at 0.8 ppm,[1]; [6],0%
same,Kill in % after 6 days +AMS + RME,[2]; [10],95%
same,Kill in % after 6 days +AMS,[2]; [11],60%
same,Kill in % after 6 days +RME,[2]; [12],95%
same,pest or weed control at 4 ppm,[2]; [14],25%
